# Source: PubChem BioAssay AID2060492 (Molecular Pharmacology Branch, DTP, NCI, 2025)
# pIC50: −log10 of the molar value.
# Test system: 695427-040-R-J1-PDC complex spheroids, viability percent T/C
# Experiment: Anticancer human tumor 695427-040-R-J1-PDC patient-derived colon adenocarcinoma cell line growth inhibition [GQUAD]
# Conditions: for pIC50: curve of first compound; for viability, T/C: stronger effect = lower value
# Procedure, shortened: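 Tumor cells were grown as complex spheroids with HUVEC endothelial cells and mesenchymal stem cells as stroma. G-quadruplex stabilizers were combined with targeted agents over half-log dilutions from near the clinical Cmax, or from 10 microM.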
# [1] = second compound 0.0316 µM, first compound 0.0316 µM
# [2] = second compound 0.0316 µM, first compound 0.1 µM
# [3] = second compound 0.0316 µM, first compound 0.316 µM
# [4] = second compound 0.0316 µM, first compound 1 µM
# [5] = second compound 0.0316 µM, first compound 3.16 µM
# [6] = second compound 0.0316 µM, first compound 10 µM
# [7] = second compound 0.1 µM, first compound 0.0316 µM
# [8] = second compound 0.1 µM, first compound 0.1 µM
# [9] = second compound 0.1 µM, first compound 0.316 µM
# [10] = second compound 0.1 µM, first compound 1 µM
# [11] = second compound 0.1 µM, first compound 3.16 µM
# [12] = second compound 0.1 µM, first compound 10 µM
# [13] = second compound 0.316 µM, first compound 0.0316 µM
# [14] = second compound 0.316 µM, first compound 0.1 µM
# [15] = second compound 0.316 µM, first compound 0.316 µM
# [16] = second compound 0.316 µM, first compound 1 µM
# [17] = second compound 0.316 µM, first compound 3.16 µM
# [18] = second compound 0.316 µM, first compound 10 µM
# [19] = second compound 1 µM, first compound 0.0316 µM
# [20] = second compound 1 µM, first compound 0.1 µM
# [21] = second compound 1 µM, first compound 0.316 µM
# [22] = second compound 1 µM, first compound 1 µM
# [23] = second compound 1 µM, first compound 3.16 µM
# [24] = second compound 1 µM, first compound 10 µM
# [25] = second compound 3.16 µM, first compound 0.0316 µM
# [26] = second compound 3.16 µM, first compound 0.1 µM
# [27] = second compound 3.16 µM, first compound 0.316 µM
# [28] = second compound 3.16 µM, first compound 1 µM
# [29] = second compound 3.16 µM, first compound 3.16 µM
# [30] = second compound 3.16 µM, first compound 10 µM
# [31] = second compound 10 µM, first compound 0.0316 µM
# [32] = second compound 10 µM, first compound 0.1 µM
# [33] = second compound 10 µM, first compound 0.316 µM
# [34] = second compound 10 µM, first compound 1 µM
# [35] = second compound 10 µM, first compound 3.16 µM
# [36] = second compound 10 µM, first compound 10 µM
# 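Also: spheroids exposed to compounds for seven days before readout.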
smiles,measurement,setting,value
CCCS(=O)(=O)Nc1ccc(F)c(C(=O)c2c[nH]c3ncc(-c4ccc(Cl)cc4)cc23)c1F + CN(C)c1ccc(Nc2c3ccc(NC(=O)CCN4CCCC4)cc3nc3cc(NC(=O)CCN4CCCC4)ccc23)cc1,pIC50,second compound 0.0316 µM,< 5.00
same,pIC50,second compound 0.1 µM,< 5.00
same,pIC50,second compound 0.316 µM,< 5.00
same,pIC50,second compound 1 µM,< 5.00
same,pIC50,second compound 3.16 µM,< 5.00
same,pIC50,second compound 10 µM,< 5.00
same,"viability, T/C",[1],108%
same,"viability, T/C",[2],99.9%
same,"viability, T/C",[3],106%
same,"viability, T/C",[4],106%
same,"viability, T/C",[5],122%
same,"viability, T/C",[6],68.1%
same,"viability, T/C",[7],103%
same,"viability, T/C",[8],94.5%
same,"viability, T/C",[9],104%
same,"viability, T/C",[10],109%
same,"viability, T/C",[11],111%
same,"viability, T/C",[12],65.9%
same,"viability, T/C",[13],105%
same,"viability, T/C",[14],108%
same,"viability, T/C",[15],101%
same,"viability, T/C",[16],106%
same,"viability, T/C",[17],123%
same,"viability, T/C",[18],68.3%
same,"viability, T/C",[19],98.7%
same,"viability, T/C",[20],99.3%
same,"viability, T/C",[21],107%
same,"viability, T/C",[22],119%
same,"viability, T/C",[23],121%
same,"viability, T/C",[24],64.2%
same,"viability, T/C",[25],91%
same,"viability, T/C",[26],103%
same,"viability, T/C",[27],94.5%
same,"viability, T/C",[28],100%
same,"viability, T/C",[29],110%
same,"viability, T/C",[30],72.4%
same,"viability, T/C",[31],86.6%
same,"viability, T/C",[32],89.3%
same,"viability, T/C",[33],90.9%
same,"viability, T/C",[34],91.2%
same,"viability, T/C",[35],90%
same,"viability, T/C",[36],67.5%
CC(=O)O[C@H]1C(=O)[C@@]2(C)[C@H]([C@H](OC(=O)c3ccccc3)[C@]3(O)C[C@H](OC(=O)[C@H](O)[C@@H](NC(=O)c4ccccc4)c4ccccc4)C(C)=C1C3(C)C)[C@]1(OC(C)=O)CO[C@@H]1C[C@@H]2O + Cc1cnc(CNC(=O)c2c(=O)c3ccc(N4CCCN(C)CC4)nc3n3c2sc2ccccc23)cn1,pIC50,second compound 0.0316 µM,< 5.00
same,pIC50,second compound 0.1 µM,< 5.00
same,pIC50,second compound 0.316 µM,< 5.00
same,pIC50,second compound 1 µM,< 5.00
same,pIC50,second compound 3.16 µM,> 7.50
same,pIC50,second compound 10 µM,> 7.50
same,"viability, T/C",[1],102%
same,"viability, T/C",[2],84.2%
same,"viability, T/C",[3],85.5%
same,"viability, T/C",[4],63.7%
same,"viability, T/C",[5],65%
same,"viability, T/C",[6],54.4%
same,"viability, T/C",[7],90.5%
same,"viability, T/C",[8],82.6%
same,"viability, T/C",[9],91.5%
same,"viability, T/C",[10],57.8%
same,"viability, T/C",[11],71.8%
same,"viability, T/C",[12],66.2%
same,"viability, T/C",[13],80.4%
same,"viability, T/C",[14],76.3%
same,"viability, T/C",[15],62.3%
same,"viability, T/C",[16],62%
same,"viability, T/C",[17],65.7%
same,"viability, T/C",[18],71.3%
same,"viability, T/C",[19],65.3%
same,"viability, T/C",[20],67.5%
same,"viability, T/C",[21],65.9%
same,"viability, T/C",[22],51.3%
same,"viability, T/C",[23],76.5%
same,"viability, T/C",[24],59.5%
same,"viability, T/C",[25],40.7%
same,"viability, T/C",[26],43.6%
same,"viability, T/C",[27],56.9%
same,"viability, T/C",[28],44.3%
same,"viability, T/C",[29],60.4%
same,"viability, T/C",[30],58%
same,"viability, T/C",[31],30.6%
same,"viability, T/C",[32],30%
same,"viability, T/C",[33],43.5%
same,"viability, T/C",[34],43.6%
same,"viability, T/C",[35],44.2%
same,"viability, T/C",[36],24.8%
COc1ccc([C@@H](O)c2cc(-c3ncnc4cc(N5CCOCC5)ccc34)c(F)cc2Cl)nn1 + Cc1[nH]c2ccc(F)cc2c1-c1nc2c3cccnc3c3ncccc3c2[nH]1,pIC50,second compound 0.0316 µM,5.44
same,pIC50,second compound 0.1 µM,< 5.00
same,pIC50,second compound 0.316 µM,< 5.00
same,pIC50,second compound 1 µM,5.02
same,pIC50,second compound 3.16 µM,5.26
same,pIC50,second compound 10 µM,5.37
same,"viability, T/C",[1],105%
same,"viability, T/C",[2],82.6%
same,"viability, T/C",[3],80.9%
same,"viability, T/C",[4],50.7%
same,"viability, T/C",[5],58.2%
same,"viability, T/C",[6],40.8%
same,"viability, T/C",[7],103%
same,"viability, T/C",[8],81.3%
same,"viability, T/C",[9],83.5%
same,"viability, T/C",[10],56.6%
same,"viability, T/C",[11],72.1%
same,"viability, T/C",[12],46.7%
same,"viability, T/C",[13],90.7%
same,"viability, T/C",[14],89.8%
same,"viability, T/C",[15],80.3%
same,"viability, T/C",[16],72%
same,"viability, T/C",[17],71.5%
same,"viability, T/C",[18],51.2%
same,"viability, T/C",[19],74.2%
same,"viability, T/C",[20],78.5%
same,"viability, T/C",[21],83.9%
same,"viability, T/C",[22],68.9%
same,"viability, T/C",[23],73.9%
same,"viability, T/C",[24],48.9%
same,"viability, T/C",[25],64.1%
same,"viability, T/C",[26],85.6%
same,"viability, T/C",[27],72.9%
same,"viability, T/C",[28],58.1%
same,"viability, T/C",[29],66.6%
same,"viability, T/C",[30],36.4%
same,"viability, T/C",[31],74%
same,"viability, T/C",[32],65.4%
same,"viability, T/C",[33],82.8%
same,"viability, T/C",[34],60.6%
same,"viability, T/C",[35],55.5%
same,"viability, T/C",[36],38.7%
